Experimental data taken from US20140303242A1, “Sparstolonin B Based Pharmaceutical Agent to Treat Pathological Angiogensis” (University of South Carolina, priority 2013, published 2014).

Assays:
HCAECs = test: Matrigel tube formation assay (HCAECs); format: cell-based, human; conditions: between 1 and 100 μM, 4 h
Procedure: (§1) To initially determine if SsnB inhibited pro-angiogenic cell functions, a tube formation assay with Matrigel was performed. Growth factor reduced Matrigel (BD Biosciences, Bedford, Mass.) was added to the wells of a 96 well polystyrene culture plate and incubated at 37° C. for 30 minutes. Cells (HUVECs, HCAECs, or HMVECs at passage 2 to 4) were added to each well to reach a final number of 20,000 cells per well. SsnB was added to the wells at a concentration of 1, 10, or 100 μM. Endothelial cell medium with DMSO (0.1%) was used as a vehicle control. Each group contained 4 replicates. The plates were placed in an incubator for 4 h. During the incubation, the endothelial cells formed elongated structures called cords, also known as tubes. After 4 h, neutral buffered formalin was added to fix the cells. Pictures of three non-overlapping fields were taken from each well. The lengths of single cell endothelial cords were measured with Image-Pro Plus (Media Cybernetics, Silver Spring, Md.), and the sum of tube lengths for each well was determined. The average total length and standard deviation for each group were determined, and the appropriate statistical tests (ANOVA and Newman-Keuls) were completed. The tube formation assay was replicated three times for both HUVECs and HCAECs. The assay was also repeated with cardiac HMVECs.

HMVECs = test: Matrigel tube formation assay (cardiac HMVECs); format: cell-based, human; conditions: 1, 10, 100 μM, 4 h
Procedure: as §1

HUVECs [1] = test: Live/Dead cell viability assay; format: cell-based; conditions: HUVECs, 1, 10, 100 μM, 4 h
Procedure: A Live/Dead assay (Invitrogen, Eugene, Oreg.) was utilized to investigate the effect of SsnB on cell viability. The Matrigel tube formation experiment was repeated with HUVECs in chamber slides at a concentration of 20,000 cells per well. The cells were treated with SsnB (1, 10, or 100 μM) or Vehicle Control (0.1% DMSO) as described above. After four hours of incubation, the slides were removed. A chamber slide containing HUVECs treated with 70% methanol for 30 minutes was used as a control for dead cell staining. The slides were aspirated and washed with PBS, and EthD-1 and calcein AM were added to each well. The plates were incubated in the dark, and images were taken with a light microscope at 10× magnification.

HUVECs [2] = test: Cell cycle analysis, propidium iodide flow cytometry; format: cell-based, human
Procedure: Cell cycle analysis was performed using propidium iodide staining and flow cytometry. HUVECs (approximately 75% confluent) cultured in 6 well polystyrene culture plates coated with 0.1% gelatin were serum starved for 24 hours in low serum medium containing 0.5% fetal bovine serum and no endothelial cell mitogen to synchronize the cells in the G1/S phase. After 24 hours, the low serum medium was replaced with treatments of either 100 μM SsnB or vehicle control (0.1% DMSO) diluted in complete growth medium (10% fetal bovine serum with endothelial cell mitogen) in triplicate. The treated cells were incubated for 24, 30, and 36 hours. After incubation, the cells were trypsinized, transferred to 5 ml polysytrene round bottom tubes (12×75 mm), and centrifuged. The medium was aspirated, and the cells were washed with PBS. After fixing the cells with ice-cold 70% ethanol for 15 min, the cells were centrifuged and stained with propidium iodide for 30 min. The samples were then analyzed with a flow cytometer (Beckman Coulter FC500). The unstained and stained cell groups were used to calibrate the settings on the flow cytometer. The data were collected and analyzed with ModFit software.

HUVECs [3] = test: Real time RT-PCR gene expression (HUVECs); format: cell-based, human; conditions: 24 h
Procedure: After a careful analysis of the microarray data, key genes (CDC6, CCNE2, KITLG, ALDH3A1, CCNB1, CDC2, HMMR, DIAPH3, ANLN, and CDKN3) were chosen for quantitative real-time PCR (qRT-PCR) to verify the gene expression results. HCAECs and HUVECs were exposed to SsnB or vehicle control for 24 h (as previously described in the microarray section). For RT-PCR, RNA was isolated from the cells with the RNeasy Mini kit as described previously. After forward and reverse primer kits (Qiagen, Valencia, Calif.) were selected, the RNA was amplified. The one-step RT-PCR reactions were completed on the BioRad iCycler thermal cycler system in the Instrumentation Resource Facility at the USC School of Medicine. The expression levels were normalized, and RNA levels were quantified.
Microarray data analysis, including data normalization (robust multi-array average), identification of differentially expressed genes (comparative analyses with dChip software), and heat map construction, was carried out to determine how SsnB affects gene expression and affected pathways (n=2 for HUVECs and n=3 for HCAECs). After a careful analysis of the microarray data, several key genes were chosen for qRT-PCR to verify the gene expression results. The genes were chosen based on the following criteria: fold change ≧2, p<0.05, unpaired t-test with a false discovery rate approximating 0%, appearing in both data sets (HUVECs and HCAECs), and gene function relating to cell proliferation and/or angiogenesis. For qRT-PCR, the expression levels were normalized to the housekeeping gene GAPDH, and RNA levels were compared between groups with the ΔΔCt method.

monocytic THP-1 cells = test: Cytotoxicity on monocytic THP-1 cells; format: cell-based; conditions: concentrations up to 100 μM
[4] = synchronized HUVECs, 100 μM SsnB, 24, 30 and 36 hours, vs vehicle control
[5] = SsnB vs vehicle control, normalized to GAPDH

How did the “HCAEC tube formation on Matrigel” value (HCAECs) turn out when `O=c1occ2c3c(ccc(O)c13)Oc1ccc(O)cc1-2` [SsnB, Sparstolonin B] was run?
Its value is “dose-dependent inhibition”.

What about the “cardiac HMVEC tube formation” value (HMVECs) of the same compound?
Its value is “dose-dependent inhibition”.

What about the “cell viability (live/dead assay)” value (HUVECs [1]) of the same compound?
The value was “no effect on cell viability”.

What about the G2/M blockage (HUVECs [2]; non-synchronized (no serum starvation) HUVECs) of the same compound?
The G2/M blockage was “G2/M blockage was observed”.

What about the “percentage of cells in the G1 phase” value (HUVECs [2]; [4]) of the same compound?
The value was “increase”.

And the “percentage of cells in the S phase” value (HUVECs [2]; [4])?
The value was “decrease”.

What about the “ALDH3A1 expression (qRT-PCR)” value (HUVECs [3]) of the same compound?
Its value is 1280 % of controls.

What about the “KITLG expression (qRT-PCR)” value (HUVECs [3]) of the same compound?
The value was 400 % of controls.

What about the “ALDH3A1 PCR 2^ΔΔCt value” (HUVECs [3]; [5]) of the same compound?
The value was 12.8.

What about the “ANLN PCR 2^ΔΔCt value” (HUVECs [3]; [5]) of the same compound?
The value was 0.20.

What about the “CCNB1 PCR 2^ΔΔCt value” (HUVECs [3]; [5]) of the same compound?
Its value is 0.40.

What about the “CCNE2 PCR 2^ΔΔCt value” (HUVECs [3]; [5]) of the same compound?
Its value is 0.64.

What about the “CDC2 PCR 2^ΔΔCt value” (HUVECs [3]; [5]) of the same compound?
Its value is 0.14.

What about the “CDC6 PCR 2^ΔΔCt value” (HUVECs [3]; [5]) of the same compound?
The value was 0.35.

What about the “CDKN3 PCR 2^ΔΔCt value” (HUVECs [3]; [5]) of the same compound?
The value was 0.18.

What about the “DIAPH3 PCR 2^ΔΔCt value” (HUVECs [3]; [5]) of the same compound?
Its value is 0.19.

And the “HMMR PCR 2^ΔΔCt value” (HUVECs [3]; [5])?
The value was 0.24.

What about the “KITLG PCR 2^ΔΔCt value” (HUVECs [3]; [5]) of the same compound?
Its value is 4.0.

What about the cytotoxic effects (monocytic THP-1 cells) of the same compound?
Its cytotoxic effects is “does not exhibit cytotoxic effects”.
